According to patent US9872495B2, “Peptoid oligomers, pharmaceutical compositions and methods of using the same” (priority 2009, dated 2018):
Values after ≈ are worked out from the molar mass of the structure shown. Like-named read-outs stand apart in the source and are kept apart here. Square brackets hold non-standard residues; d marks the D form. Peptide text beside a SMILES is read from it. Gly(N(CH2)3NH2) = NCCCNCC(=O)O; N(iPr)Gly = CC(C)NCC(=O)O; Nphe = O=C(O)CNCc1ccccc1; Orn = NCCC[C@H](N)C(=O)O; Nleu = CC(C)CNCC(=O)O

Columns and labels:
Assay type in all cases: cell-based
[1] = test system: fresh human erythrocytes; test: Hemolytic activity
Description: Typically, toxicity is evaluated by hemolytic concentration50 (HC50), which measures the concentration of antimicrobial agents at which 50% of the erythrocytes in the culture are lysed. Significant hemolysis, as evaluated by HC50, was detectable only for peptide gramicidin S (40 μg/mL). […] In order to test hemolytic activity of peptoid oligomers further, more stringent parameters were used. Instead of HC50, hemolytic concentration10 (HC10) was used to evaluate hemolytic activity of peptoids used in this study. HC10 represents the concentration of antimicrobial agents where 10% of erythrocytes are lysed. HC10 values were detectable for only four peptoid oligomers. […] Antimicrobial activity was tested against the gram-negative strain Escherichia coli ATCC 25922, and […] strains Staphylococcus aureus ATCC 25923, and Bacillus subtilis ATCC 6633, according to the guidelines given in the document […]-A7 of the CLSI (Clinical and Laboratory Standards Institute; Clinical and Laboratory Standards Institute. Methods for Dilution Antimicrobial Susceptibility Tests for Bacteria That Grow Aerobically-Seventh Edition: Approved Standard CLSI document […]-A7. CLSI, Wayne, USA, 2006). This reference is incorporated herein in its entirety. Hemolytic activity was tested against fresh human erythrocytes.

[2] = test system: Escherichia coli ATCC 25922
Description: (§1) Antimicrobial activity was tested against the gram-negative strain Escherichia coli ATCC 25922, and […] strains Staphylococcus aureus ATCC 25923, and Bacillus subtilis ATCC 6633, according to the guidelines given in the document […]-A7 of the CLSI (Clinical and Laboratory Standards Institute; Clinical and Laboratory Standards Institute. Methods for Dilution Antimicrobial Susceptibility Tests for Bacteria That Grow Aerobically-Seventh Edition: Approved Standard CLSI document […]-A7. CLSI, Wayne, USA, 2006). This reference is incorporated herein in its entirety. Hemolytic activity was tested against fresh human erythrocytes.

[3] = test system: Staphylococcus aureus ATCC 25923
Description: as §1

[4] = test system: Bacillus subtilis ATCC 6633
Description: as §1

Row | MIC E. coli ([2]; ATCC 25922) | MIC S. aureus ([3]; ATCC 25923) | MIC B. sub ([4]; ATCC 6633) | Compound | HC10 (concentration where 10% hemolysis is observed) ([1]; red cells of human) | HC50 (concentration where 50% hemolysis is observed) ([1]; red cells of human) | HC10 (concentration where 10% hemolysis is observed) ([1]; fresh human erythrocytes) | HC50 (concentration where 50% hemolysis is observed) ([1]; fresh human erythrocytes) | MIC E. coli ([2]; E. coli ATCC 25922) | MIC S. aureus ([3]; S. aureus ATCC 25923) | MIC B. sub ([4]; B. subtilis ATCC 6633) | HC50 (concentration where 50% hemolysis is observed) [1]
1 | 31.3 µg/mL (≈ 14.9 µM) | 62.5 µg/mL (≈ 29.8 µM) | 62.5 µg/mL (≈ 29.8 µM) | CC(=O)N(CCCCNC(=N)N)CC(=O)N(CC(=O)N(CCCCNC(=N)N)CC(=O)N(CC(=O)N(CCCCNC(=N)N)CC(=O)N(CC(=O)N(CCCCNC(=N)N)CC(=O)N(CC(=O)N(CCCCNC(=N)N)CC(=O)N(CC(N)=O)CC(c1ccccc1)c1ccccc1)CC(c1ccccc1)c1ccccc1)CC(c1ccccc1)c1ccccc1)CC(c1ccccc1)c1ccccc1)CC(c1ccccc1)c1ccccc1 [Compound 15, Ac(NgbNdp)5] | >250 µg/mL | >250 µg/mL | – | – | – | – | – | –
2 | 62.5 µg/mL (≈ 62.9 µM) | 125 µg/mL (≈ 126 µM) | 2 µg/mL (≈ 2.01 µM) | CC(=O)N(CCCN)CC(=O)N(CC(=O)N(CCCN)CC(=O)N(CC(=O)N(CCCN)CC(=O)N(CC(N)=O)Cc1ccc2ccccc2c1)Cc1ccc2ccccc2c1)Cc1ccc2ccccc2c1 [Compound 5, Ac(NapNnm)3] | >250 µg/mL | >250 µg/mL | – | – | – | – | – | –
3 | 250 µg/mL (≈ 123 µM) | 250 µg/mL (≈ 123 µM) | 250 µg/mL (≈ 123 µM) | N=C(N)NCCCCN1CC(=O)N(CC(c2ccccc2)c2ccccc2)CC(=O)N(CCCCNC(=N)N)CC(=O)N(CC(c2ccccc2)c2ccccc2)CC(=O)N(CCCCNC(=N)N)CC(=O)N(CC(c2ccccc2)c2ccccc2)CC(=O)N(CCCCNC(=N)N)CC(=O)N(CC(c2ccccc2)c2ccccc2)CC(=O)N(CCCCNC(=N)N)CC(=O)N(CC(c2ccccc2)c2ccccc2)CC1=O [Compound 31, C(NgbNdp)5] | >62.5 µg/mL | >250 µg/mL | – | – | – | – | – | –
4 | >500 µg/mL | >500 µg/mL | >500 µg/mL | CC(=O)N(CCCN)CC(=O)N(CC(=O)N(CCCN)CC(=O)N(CC(=O)N(CCCN)CC(=O)N(CCCN)CC(N)=O)Cc1ccccc1)Cc1ccccc1 [Compound 6, Ac(NapNpm)2Nap2] (Ac-[Gly(N(CH2)3NH2)][Nphe][Gly(N(CH2)3NH2)][Nphe][Gly(N(CH2)3NH2)][Gly(N(CH2)3NH2)]-NH2) | >250 µg/mL | >250 µg/mL | – | – | – | – | – | –
5 | >500 µg/mL | >500 µg/mL | >500 µg/mL | NCCCN1CC(=O)N(CCCN)CC(=O)N(Cc2ccccc2)CC(=O)N(CCCN)CC(=O)N(Cc2ccccc2)CC(=O)N(CCCN)CC1=O [Compound 22, C(NapNpm)2Nap2] (cyclo([Nphe][Gly(N(CH2)3NH2)][Nphe][Gly(N(CH2)3NH2)][Gly(N(CH2)3NH2)][Gly(N(CH2)3NH2)])) | >250 µg/mL | >250 µg/mL | – | – | – | – | – | –
6 | – | – | – | CC(=O)N(CC(=O)N(CCCN)CC(=O)N(CC(=O)N(CC(=O)N1CCC[C@H]1C(=O)N(CC(=O)N(CCCN)CC(=O)N(CC(=O)N(CC(=O)N1CCC[C@H]1C(N)=O)Cc1ccccc1)CC(C)C)C(C)C)Cc1ccccc1)CC(C)C)C(C)C [Compound 11, Ac(NipNapNibNpmPro)2] (Ac-[N(iPr)Gly][Gly(N(CH2)3NH2)][Nleu][Nphe]P[N(iPr)Gly][Gly(N(CH2)3NH2)][Nleu][Nphe]P-NH2) | – | – | >250 µg/mL | >250 µg/mL | >500 µg/mL | >500 µg/mL | >500 µg/mL | –

Row | Compound | MIC E. coli ([2]; ATCC 25922) | MIC S. aureus ([3]; ATCC 25923) | MIC B. sub ([4]; ATCC 6633) | HC10 (concentration where 10% hemolysis is observed) ([1]; red cells of human) | HC50 (concentration where 50% hemolysis is observed) ([1]; red cells of human) | HC10 (concentration where 10% hemolysis is observed) ([1]; fresh human erythrocytes) | HC50 (concentration where 50% hemolysis is observed) ([1]; fresh human erythrocytes) | MIC E. coli ([2]; E. coli ATCC 25922) | MIC S. aureus ([3]; S. aureus ATCC 25923) | MIC B. sub ([4]; B. subtilis ATCC 6633) | HC50 (concentration where 50% hemolysis is observed) [1]
7 | CC(C)C[C@@H]1NC(=O)[C@H](CCCN)NC(=O)[C@H](C(C)C)NC(=O)[C@@H]2CCCN2C(=O)[C@@H](Cc2ccccc2)NC(=O)[C@H](CC(C)C)NC(=O)[C@H](CCCN)NC(=O)[C@H](C(C)C)NC(=O)[C@@H]2CCCN2C(=O)[C@@H](Cc2ccccc2)NC1=O [Compound 17, Gramicidin S, reference compound] (cyclo(V[Orn]L[dF]PV[Orn]L[dF]P)) | 15.6 µg/mL (≈ 13.7 µM) | 15.6 µg/mL (≈ 13.7 µM) | 2 µg/mL (≈ 1.75 µM) | >15.6 µg/mL | – | – | – | – | – | – | 40 µg/mL
